Source: patent US20210251963A1, “UREA DERIVATIVES FOR USE IN THE TREATMENT OF SUBJECTS WITH ELEVATED EXPRESSION AND/OR ACTIVITY OF SRPK1” (Scandion Oncology A/S, priority 2018, published 2021)

Columns and labels:
Assay in all cases: Premier Screen kinase activity screening (33P ATP filter binding)
Format in all cases: biochemical
PAK6 = PAK6 (Homo sapiens, UniProt Q9NQU5); settings: 10 μM SCO-101, mean of assay duplicates, read-out: Kinase activity (percentage of DMSO control)
Excerpt: (§1) The kinase activity screening was done at MRC in Dundee. The screen was a so-called “Premier Screen” with 140 kinases. More specific information can be found here: http://www.kinase-screen.mrc.ac.uk/services/premier-screen
(§2) The method is based on a radioactive filter binding assay using 33P ATP (Hastie, et al 2006. Nat Protoc. 2006; 1(2):968-71; Bain, et al 2007. Biochem J. 2007 Dec. 15; 408(3):297-315). This method is sensitive, accurate and provides a direct measure of kinase enzyme activity. A concentration of 10 μM SCO-101 was used.
(§3) In the table below, the data is portrayed as the mean percentage activity of assay duplicates and a standard deviation. These percentage activities were calculated in comparison to DMSO controls. 10 μM SCO-101 reduced the activity of SRPK1 to 6% of the DMSO control.

MELK = target: T1, MELK (Homo sapiens, UniProt Q14680); settings: 10 μM SCO-101, mean of assay duplicates, read-out: Kinase activity (percentage of DMSO control)
T1 construct: MRC Dundee (screening service)
Excerpt: as §1, §2, §3

IR = target: T2, IR (Homo sapiens, UniProt P06213); settings: 10 μM SCO-101, mean of assay duplicates, read-out: Kinase activity (percentage of DMSO control)
T2 construct: MRC Dundee (screening service)
Excerpt: as §1, §2, §3

CAMK1 = target: T3, CAMK1 (Homo sapiens, UniProt Q14012); settings: 10 μM SCO-101, mean of assay duplicates, read-out: Kinase activity (percentage of DMSO control)
T3 construct: purchased MRC in Dundee (Premier Screen service)
Excerpt: as §1, §2, §3

TAK1 = target: T4, TAK1 (Homo sapiens, UniProt O43318); settings: 10 μM SCO-101, mean of assay duplicates, read-out: Kinase activity (percentage of DMSO control)
T4 construct: purchased MRC Dundee, Premier Screen (contract screening service)
Excerpt: as §1, §2, §3

CDK9-Cyclin T1 = target: T5, CDK9-Cyclin T1 (Homo sapiens, UniProt P50750); settings: 10 μM SCO-101, mean of assay duplicates, read-out: Kinase activity (percentage of DMSO control)
T5 construct: purchased MRC Dundee, Premier Screen (contract screening service)
Excerpt: as §1, §2, §3

ROCK 2 = target: T6, ROCK 2 (Rattus norvegicus, UniProt Q62868); settings: 10 μM SCO-101, mean of assay duplicates, read-out: Kinase activity (percentage of DMSO control)
T6 construct: MRC Dundee (screening service)
Excerpt: as §1, §2, §3

PIM3 = target: T7, PIM3 (Homo sapiens, UniProt Q86V86); settings: 10 μM SCO-101, mean of assay duplicates, read-out: Kinase activity (percentage of DMSO control)
T7 construct: purchased MRC in Dundee (Premier Screen service)
Excerpt: as §1, §2, §3

HER4 = target: T8, HER4 (Homo sapiens, UniProt Q15303); settings: 10 μM SCO-101, mean of assay duplicates, read-out: Kinase activity (percentage of DMSO control)
T8 construct: MRC Dundee (screening service)
Excerpt: as §1, §2, §3

PKBb = target: T9, PKBb (Homo sapiens, UniProt P31751); settings: 10 μM SCO-101, mean of assay duplicates, read-out: Kinase activity (percentage of DMSO control)
T9 construct: MRC in Dundee (screening service)
Excerpt: as §1, §2, §3

CK2 = target: T10, CK2 (Homo sapiens, UniProt P68400); settings: 10 μM SCO-101, mean of assay duplicates, read-out: Kinase activity (percentage of DMSO control)
T10 construct: purchased MRC Dundee, Premier Screen (contract screening service)
Excerpt: as §1, §2, §3

MST4 = MST4 (Homo sapiens, UniProt Q9P289); settings: 10 μM SCO-101, mean of assay duplicates, read-out: Kinase activity (percentage of DMSO control)
Excerpt: as §1, §2, §3

EPH-B3 = EPH-B3 (Homo sapiens, UniProt P54753); settings: 10 μM SCO-101, mean of assay duplicates, read-out: Kinase activity (percentage of DMSO control)
Excerpt: as §1, §2, §3

PKCz = target: T11, PKCz (Homo sapiens, UniProt Q05513); settings: 10 μM SCO-101, mean of assay duplicates, read-out: Kinase activity (percentage of DMSO control)
T11 construct: MRC Dundee (screening service)
Excerpt: as §1, §2, §3

MLK1 = target: T12, MLK1 (Homo sapiens, UniProt P80192); settings: 10 μM SCO-101, mean of assay duplicates, read-out: Kinase activity (percentage of DMSO control)
T12 construct: MRC Dundee (screening service)
Excerpt: as §1, §2, §3

NEK6 = target: T13, NEK6 (Homo sapiens, UniProt Q9HC98); settings: 10 μM SCO-101, mean of assay duplicates, read-out: Kinase activity (percentage of DMSO control)
T13 construct: MRC in Dundee (screening service)
T13 sequence (Q9HC98 whole entry, species assumed): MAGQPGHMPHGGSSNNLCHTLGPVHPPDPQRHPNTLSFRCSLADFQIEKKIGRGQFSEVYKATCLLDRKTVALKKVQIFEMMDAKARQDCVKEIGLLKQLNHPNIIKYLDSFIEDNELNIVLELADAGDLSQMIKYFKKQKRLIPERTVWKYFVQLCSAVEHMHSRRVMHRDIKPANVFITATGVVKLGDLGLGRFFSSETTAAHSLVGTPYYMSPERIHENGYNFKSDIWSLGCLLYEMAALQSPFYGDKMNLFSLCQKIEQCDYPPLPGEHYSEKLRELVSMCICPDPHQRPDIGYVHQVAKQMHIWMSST
Excerpt: as §1, §2, §3

MKK1 = MKK1 (Homo sapiens, UniProt Q02750); settings: 10 μM SCO-101, mean of assay duplicates, read-out: Kinase activity (percentage of DMSO control)
Excerpt: as §1, §2, §3

BTK = target: T14, BTK (Homo sapiens, UniProt Q06187); settings: 10 μM SCO-101, mean of assay duplicates, read-out: Kinase activity (percentage of DMSO control)
T14 construct: MRC in Dundee (screening service)
Excerpt: as §1, §2, §3

TTK = target: T15, TTK (Homo sapiens, UniProt P33981); settings: 10 μM SCO-101, mean of assay duplicates, read-out: Kinase activity (percentage of DMSO control)
T15 construct: MRC in Dundee (screening service)
Excerpt: as §1, §2, §3

TAO1 = settings: 10 μM SCO-101, mean of assay duplicates
Excerpt: as §1, §2, §3

SYK = target: T16, SYK (Homo sapiens, UniProt P43405); settings: 10 μM SCO-101, mean of assay duplicates, read-out: Kinase activity (percentage of DMSO control)
T16 construct: purchased MRC in Dundee (Premier Screen service)
Excerpt: as §1, §2, §3

CDK2-Cyclin A = CDK2-Cyclin A (Homo sapiens, UniProt P24941); settings: 10 μM SCO-101, mean of assay duplicates, read-out: Kinase activity (percentage of DMSO control)
Excerpt: as §1, §2, §3

HIPK1 = target: T17, HIPK1 (Homo sapiens, UniProt Q86Z02); settings: 10 μM SCO-101, mean of assay duplicates, read-out: Kinase activity (percentage of DMSO control)
T17 construct: MRC Dundee (screening service)
T17 sequence (Q86Z02 whole entry, species assumed): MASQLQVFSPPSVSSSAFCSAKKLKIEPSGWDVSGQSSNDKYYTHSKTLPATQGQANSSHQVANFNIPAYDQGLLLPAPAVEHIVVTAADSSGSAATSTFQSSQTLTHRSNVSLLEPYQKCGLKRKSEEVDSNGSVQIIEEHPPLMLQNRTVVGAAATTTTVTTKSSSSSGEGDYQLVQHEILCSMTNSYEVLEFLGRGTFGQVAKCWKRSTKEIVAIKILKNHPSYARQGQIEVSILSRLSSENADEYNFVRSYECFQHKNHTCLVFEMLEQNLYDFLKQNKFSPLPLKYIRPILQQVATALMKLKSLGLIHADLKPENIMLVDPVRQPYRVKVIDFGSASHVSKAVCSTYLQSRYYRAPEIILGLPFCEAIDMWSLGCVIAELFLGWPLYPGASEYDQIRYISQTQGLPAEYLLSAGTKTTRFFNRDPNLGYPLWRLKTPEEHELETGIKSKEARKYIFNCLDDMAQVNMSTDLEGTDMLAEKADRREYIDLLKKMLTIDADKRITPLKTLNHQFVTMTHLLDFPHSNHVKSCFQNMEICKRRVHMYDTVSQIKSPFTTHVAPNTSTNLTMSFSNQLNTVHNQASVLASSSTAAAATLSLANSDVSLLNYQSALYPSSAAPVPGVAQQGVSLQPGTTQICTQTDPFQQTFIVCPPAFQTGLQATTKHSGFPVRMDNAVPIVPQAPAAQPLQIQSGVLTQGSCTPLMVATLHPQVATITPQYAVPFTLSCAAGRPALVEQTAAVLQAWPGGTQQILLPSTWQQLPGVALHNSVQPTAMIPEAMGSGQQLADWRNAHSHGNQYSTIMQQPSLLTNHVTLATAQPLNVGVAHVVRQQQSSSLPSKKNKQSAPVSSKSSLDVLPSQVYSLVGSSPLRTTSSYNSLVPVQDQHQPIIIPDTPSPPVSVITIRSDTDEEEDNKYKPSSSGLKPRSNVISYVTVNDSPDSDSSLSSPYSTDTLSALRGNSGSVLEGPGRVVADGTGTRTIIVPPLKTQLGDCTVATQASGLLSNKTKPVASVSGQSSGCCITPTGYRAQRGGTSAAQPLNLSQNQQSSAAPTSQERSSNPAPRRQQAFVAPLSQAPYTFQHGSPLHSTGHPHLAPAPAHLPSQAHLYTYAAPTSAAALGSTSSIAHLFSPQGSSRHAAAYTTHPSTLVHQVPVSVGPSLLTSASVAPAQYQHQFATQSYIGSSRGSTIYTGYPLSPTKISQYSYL
Excerpt: as §1, §2, §3

CSK = target: T18, CSK (Homo sapiens, UniProt P41240); settings: 10 μM SCO-101, mean of assay duplicates, read-out: Kinase activity (percentage of DMSO control)
T18 construct: purchased MRC Dundee, Premier Screen (contract screening service)
Excerpt: as §1, §2, §3

PLK1 = target: T19, PLK1 (Homo sapiens, UniProt P53350); settings: 10 μM SCO-101, mean of assay duplicates, read-out: Kinase activity (percentage of DMSO control)
T19 construct: purchased MRC in Dundee (Premier Screen service)
T19 sequence (P53350 whole entry, species assumed): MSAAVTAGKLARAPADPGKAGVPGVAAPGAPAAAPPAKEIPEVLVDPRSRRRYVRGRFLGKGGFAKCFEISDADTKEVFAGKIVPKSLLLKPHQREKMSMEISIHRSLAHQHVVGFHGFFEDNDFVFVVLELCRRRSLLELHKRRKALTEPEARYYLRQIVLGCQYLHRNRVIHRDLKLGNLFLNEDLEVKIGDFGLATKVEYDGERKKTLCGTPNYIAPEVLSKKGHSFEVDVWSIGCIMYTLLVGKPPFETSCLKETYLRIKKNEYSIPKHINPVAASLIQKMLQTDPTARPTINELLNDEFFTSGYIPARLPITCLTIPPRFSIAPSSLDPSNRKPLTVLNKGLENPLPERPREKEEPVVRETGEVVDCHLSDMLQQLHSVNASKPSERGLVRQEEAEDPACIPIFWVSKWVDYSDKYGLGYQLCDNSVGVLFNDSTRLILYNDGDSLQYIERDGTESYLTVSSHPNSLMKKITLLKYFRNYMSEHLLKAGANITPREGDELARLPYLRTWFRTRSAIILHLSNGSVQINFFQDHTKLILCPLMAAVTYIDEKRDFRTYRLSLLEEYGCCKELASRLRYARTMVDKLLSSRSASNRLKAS
Excerpt: as §1, §2, §3

BRSK1 = target: T20, BRSK1 (Homo sapiens, UniProt Q8TDC3); settings: 10 μM SCO-101, mean of assay duplicates, read-out: Kinase activity (percentage of DMSO control)
T20 construct: purchased MRC in Dundee (Premier Screen service)
Excerpt: as §1, §2, §3

ZAP70 = target: T21, ZAP70 (Homo sapiens, UniProt P43403); settings: 10 μM SCO-101, mean of assay duplicates, read-out: Kinase activity (percentage of DMSO control)
T21 construct: MRC Dundee (screening service)
T21 sequence (P43403 whole entry, species assumed): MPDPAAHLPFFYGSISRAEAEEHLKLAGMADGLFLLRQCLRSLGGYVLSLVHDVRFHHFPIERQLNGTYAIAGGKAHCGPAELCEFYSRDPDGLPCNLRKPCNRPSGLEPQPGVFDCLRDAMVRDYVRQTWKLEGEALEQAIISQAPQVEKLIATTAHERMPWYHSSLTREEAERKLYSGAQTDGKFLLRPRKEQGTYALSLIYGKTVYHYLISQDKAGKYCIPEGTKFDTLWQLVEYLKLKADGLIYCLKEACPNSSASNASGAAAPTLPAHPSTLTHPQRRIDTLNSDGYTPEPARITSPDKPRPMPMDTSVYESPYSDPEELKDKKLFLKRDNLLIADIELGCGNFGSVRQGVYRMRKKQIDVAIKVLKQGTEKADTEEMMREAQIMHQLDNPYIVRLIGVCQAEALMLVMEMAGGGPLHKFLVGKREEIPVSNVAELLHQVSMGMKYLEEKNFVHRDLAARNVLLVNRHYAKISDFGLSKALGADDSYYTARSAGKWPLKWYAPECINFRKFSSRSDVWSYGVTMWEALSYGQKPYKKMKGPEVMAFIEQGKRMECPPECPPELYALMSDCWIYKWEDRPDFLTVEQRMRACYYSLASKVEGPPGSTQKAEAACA
Excerpt: as §1, §2, §3

CAMKKb = target: T22, CAMKKb (Homo sapiens, UniProt Q96RR4); settings: 10 μM SCO-101, mean of assay duplicates, read-out: Kinase activity (percentage of DMSO control)
T22 construct: MRC in Dundee (screening service)
Excerpt: as §1, §2, §3

MARK3 = target: T23, MARK3 (Homo sapiens, UniProt P27448); settings: 10 μM SCO-101, mean of assay duplicates, read-out: Kinase activity (percentage of DMSO control)
T23 construct: MRC Dundee (screening service)
Excerpt: as §1, §2, §3

MSK1 = target: T24, MSK1 (Homo sapiens, UniProt O75582); settings: 10 μM SCO-101, mean of assay duplicates, read-out: Kinase activity (percentage of DMSO control)
T24 construct: MRC Dundee (screening service)
Excerpt: as §1, §2, §3

SIK2 = target: T25, SIK2 (Homo sapiens, UniProt Q9H0K1); settings: 10 μM SCO-101, mean of assay duplicates, read-out: Kinase activity (percentage of DMSO control)
T25 construct: MRC in Dundee (screening service)
Excerpt: as §1, §2, §3

p38g MAPK = target: T26, p38g MAPK (Homo sapiens, UniProt P53778); settings: 10 μM SCO-101, mean of assay duplicates, read-out: Kinase activity (percentage of DMSO control)
T26 construct: purchased MRC Dundee, Premier Screen (contract screening service)
Excerpt: as §1, §2, §3

IKKe = target: T27, IKKe (Homo sapiens, UniProt Q14164); settings: 10 μM SCO-101, mean of assay duplicates, read-out: Kinase activity (percentage of DMSO control)
T27 construct: purchased MRC in Dundee (Premier Screen service)
T27 sequence (Q14164 whole entry, species assumed): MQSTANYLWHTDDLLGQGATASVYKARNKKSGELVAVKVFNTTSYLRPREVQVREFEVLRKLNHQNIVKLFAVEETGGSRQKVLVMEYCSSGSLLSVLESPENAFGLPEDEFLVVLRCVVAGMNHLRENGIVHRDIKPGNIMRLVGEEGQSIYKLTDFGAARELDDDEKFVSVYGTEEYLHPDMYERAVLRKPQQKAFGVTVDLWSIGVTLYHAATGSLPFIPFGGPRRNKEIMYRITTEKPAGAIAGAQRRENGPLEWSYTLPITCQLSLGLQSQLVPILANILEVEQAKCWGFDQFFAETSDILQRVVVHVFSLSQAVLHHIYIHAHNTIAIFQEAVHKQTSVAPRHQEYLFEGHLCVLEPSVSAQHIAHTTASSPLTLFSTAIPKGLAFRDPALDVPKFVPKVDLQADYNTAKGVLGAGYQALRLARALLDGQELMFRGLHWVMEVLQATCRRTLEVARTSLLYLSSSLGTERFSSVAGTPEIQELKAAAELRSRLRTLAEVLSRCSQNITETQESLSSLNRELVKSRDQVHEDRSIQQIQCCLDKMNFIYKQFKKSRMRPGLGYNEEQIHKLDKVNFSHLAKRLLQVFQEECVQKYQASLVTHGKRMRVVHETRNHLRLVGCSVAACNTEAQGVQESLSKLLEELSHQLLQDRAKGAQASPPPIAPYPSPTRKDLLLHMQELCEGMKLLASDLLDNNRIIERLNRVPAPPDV
Excerpt: as §1, §2, §3

IKKb = target: T28, IKKb (Homo sapiens, UniProt O14920); settings: 10 μM SCO-101, mean of assay duplicates, read-out: Kinase activity (percentage of DMSO control)
T28 construct: MRC Dundee (screening service)
Excerpt: as §1, §2, §3

MST2 = target: T29, MST2 (Homo sapiens, UniProt Q13188); settings: 10 μM SCO-101, mean of assay duplicates, read-out: Kinase activity (percentage of DMSO control)
T29 construct: purchased MRC in Dundee (Premier Screen service)
T29 sequence (Q13188 whole entry, species assumed): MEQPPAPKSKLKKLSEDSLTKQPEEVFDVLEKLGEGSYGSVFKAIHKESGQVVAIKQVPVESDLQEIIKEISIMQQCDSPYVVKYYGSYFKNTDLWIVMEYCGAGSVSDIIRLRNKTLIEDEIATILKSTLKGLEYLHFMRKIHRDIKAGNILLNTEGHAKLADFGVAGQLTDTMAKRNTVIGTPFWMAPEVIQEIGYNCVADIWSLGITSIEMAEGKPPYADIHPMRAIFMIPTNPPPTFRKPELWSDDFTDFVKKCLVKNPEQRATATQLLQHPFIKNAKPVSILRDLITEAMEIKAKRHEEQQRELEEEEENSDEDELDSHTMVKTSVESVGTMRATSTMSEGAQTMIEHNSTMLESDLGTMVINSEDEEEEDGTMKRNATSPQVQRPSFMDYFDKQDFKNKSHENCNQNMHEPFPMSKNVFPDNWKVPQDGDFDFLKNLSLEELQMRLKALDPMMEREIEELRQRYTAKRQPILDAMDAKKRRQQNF
Excerpt: as §1, §2, §3

SmMLCK = target: T30, SmMLCK (Homo sapiens, UniProt Q15746); settings: 10 μM SCO-101, mean of assay duplicates, read-out: Kinase activity (percentage of DMSO control)
T30 construct: purchased MRC in Dundee (Premier Screen service)
Excerpt: as §1, §2, §3

Sequence of PAK6 (Q9NQU5 whole entry, species assumed): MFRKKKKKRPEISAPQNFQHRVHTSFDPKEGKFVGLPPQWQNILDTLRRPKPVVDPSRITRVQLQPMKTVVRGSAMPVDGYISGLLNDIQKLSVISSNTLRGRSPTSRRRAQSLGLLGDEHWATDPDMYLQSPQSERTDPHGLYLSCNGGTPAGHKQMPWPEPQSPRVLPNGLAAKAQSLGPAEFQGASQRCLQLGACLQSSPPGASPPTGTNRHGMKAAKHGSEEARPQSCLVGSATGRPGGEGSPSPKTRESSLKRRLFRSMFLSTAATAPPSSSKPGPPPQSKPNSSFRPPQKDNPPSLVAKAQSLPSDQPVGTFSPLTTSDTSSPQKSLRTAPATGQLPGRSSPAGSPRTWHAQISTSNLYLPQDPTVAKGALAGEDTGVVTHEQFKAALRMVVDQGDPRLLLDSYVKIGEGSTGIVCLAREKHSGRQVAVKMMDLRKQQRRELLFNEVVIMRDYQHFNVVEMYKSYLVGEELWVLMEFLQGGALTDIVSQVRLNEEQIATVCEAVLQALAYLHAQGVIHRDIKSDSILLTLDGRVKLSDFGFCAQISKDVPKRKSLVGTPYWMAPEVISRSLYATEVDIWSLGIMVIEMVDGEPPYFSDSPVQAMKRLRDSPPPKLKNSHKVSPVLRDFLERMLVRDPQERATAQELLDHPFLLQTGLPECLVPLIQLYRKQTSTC

O=C(Nc1cc(C(F)(F)F)cc(C(F)(F)F)c1)Nc1ccc(Br)cc1-c1nnn[nH]1 [SCO-101]
remaining activity at 10 µM (PAK6): 123%
remaining activity at 10 µM (MELK): 95%
remaining activity at 10 µM (IR): 98%
remaining activity at 10 µM (CAMK1): 57%
remaining activity at 10 µM (TAK1): 107%
remaining activity at 10 µM (CDK9-Cyclin T1): 104%
remaining activity at 10 µM (ROCK 2): 101%
remaining activity at 10 µM (PIM3): 49%
remaining activity at 10 µM (HER4): 98%
remaining activity at 10 µM (PKBb): 84%
remaining activity at 10 µM (CK2): 107%
remaining activity at 10 µM (MST4): 117%
remaining activity at 10 µM (EPH-B3): 114%
remaining activity at 10 µM (PKCz): 101%
remaining activity at 10 µM (MLK1): 98%
remaining activity at 10 µM (NEK6): 90%
remaining activity at 10 µM (MKK1): 118%
remaining activity at 10 µM (BTK): 78%
remaining activity at 10 µM (TTK): 88%
Kinase activity (percentage of DMSO control) (TAO1): 116 percentage of DMSO control
remaining activity at 10 µM (SYK): 62%
remaining activity at 10 µM (CDK2-Cyclin A): 113%
remaining activity at 10 µM (HIPK1): 98%
remaining activity at 10 µM (CSK): 106%
remaining activity at 10 µM (PLK1): 59%
remaining activity at 10 µM (BRSK1): 124%
remaining activity at 10 µM (ZAP70): 99%
remaining activity at 10 µM (CAMKKb): 94%
remaining activity at 10 µM (MARK3): 99%
remaining activity at 10 µM (MSK1): 101%
remaining activity at 10 µM (SIK2): 81%
remaining activity at 10 µM (p38g MAPK): 110%
remaining activity at 10 µM (IKKe): 75%
remaining activity at 10 µM (IKKb): 99%
remaining activity at 10 µM (MST2): 146%
remaining activity at 10 µM (SmMLCK): 77%
